Laboratory results published in US10711008B2, “Indoline analogs and uses thereof” (Oncternal Therapeutics, Inc., priority 2016, dated 2020).

Key:
Type in all cases: cell-based, human
Conditions in all cases: 3 days with compound at 0.02 to 5 μM, CCK-8, A450, 50% inhibition of cell viability
[1] = tested on: SKES (type 2, 7/5) cells (Ewing Sarcoma cell line); assay: Cell growth inhibition, modified tetrazolium salt assay (CCK-8 kit), SKES cells
Procedure: (§1) A modified tetrazolium salt assay using the CCK-8 kit (Sigma-Aldrich; St Louis, Mo.) was used to measure the inhibition of human tumor cell growth. Tumor cells (5000-7500 per well) were added to 96 well plates and allowed to attach for 4-5 hours. Compounds were serially diluted and added in triplicate at a concentration of 0.02 to 5 μM. DMSO was included as a vehicle control. Cells were incubated in the presence of compound for 3 days. After incubation CCK-8 reagent was added to each well and incubated for 2-4 hours. Viable cells were quantitated spectrophotometrically at a wavelength of 450 nm. Percent viability of each sample was calculated from the A450 values as follows: % viability=(A450 nm sample/A450 nm DMSO-treated cells×100). The IC50 was defined as the concentration that gave rise to 50% inhibition of cell viability. IC50 activities of particular compounds were determined using SKES (type 2, 7/5) cells (Ewing Sarcoma cell line), TC71 (Type 1, 7/6) cells (Ewing Sarcoma cell line), and A4573 (Type 3, 10/6) cells (Ewing Sarcoma cell line). […] TK-216 is a YK-4-279 clinical derivative that is in phase 1 for patients with relapsed or refractory Ewing sarcoma. Preclinical testing has been conducted for TK-216 in lymphoma models. Test results for the analogs were compared to those for TK-216 and YK-4-279.

[2] = tested on: A4573 (Type 3, 10/6) cells (Ewing Sarcoma cell line); assay: Cell growth inhibition, modified tetrazolium salt assay (CCK-8 kit), A4573 cells
Procedure: as §1

[3] = tested on: TC71 (Type 1, 7/6) cells (Ewing Sarcoma cell line); assay: Cell growth inhibition, modified tetrazolium salt assay (CCK-8 kit), TC71 cells
Procedure: as §1

| Compound | IC50 ([1]; Homo sapiens, 72 h) [µM] | IC50 ([2]; Homo sapiens, 72 h) [µM] | IC50 ([3]; Homo sapiens, TC-71, 72 h) [µM] | IC50 [1] [µM] | IC50 [2] [µM] | IC50 [3] [µM] |
| --- | --- | --- | --- | --- | --- | --- |
| O=C(CC1(O)C(=O)Nc2c(Cl)ccc(Cl)c21)c1ccc(OC(F)F)cc1 (stereo not drawn) [TK Analog 4] | > 5 | > 5 | > 5 | – | – | – |
| C#Cc1ccc(C(=O)CC2(O)C(=O)Nc3c(Cl)ccc(Cl)c32)cc1 (stereo not drawn) [TK Analog 5] | > 5 | > 5 | > 5 | – | – | – |
| CNC(=O)Oc1ccc(C(=O)CC2(O)C(=O)Nc3c(Cl)ccc(Cl)c32)cc1 (stereo not drawn) [TK Analog 13] | > 5 | > 5 | > 5 | – | – | – |
| CN(C)c1ccc(-c2cc3c(nn2)[nH]c2c(Cl)ccc(Cl)c23)cc1 [TK Analog 14] | > 5 | > 5 | > 5 | – | – | – |
| COc1ccc2nn(CC3(O)C(=O)Nc4c(Cl)ccc(Cl)c43)cc2c1 (stereo not drawn) [TK Analog 16A] | > 5 | > 5 | > 5 | – | – | – |
| COc1ccc2c(CC3(O)C(=O)Nc4c(Cl)ccc(Cl)c43)noc2c1 (stereo not drawn) [TK Analog 17] | > 5 | > 5 | > 5 | – | – | – |
| COc1ccc2c(CC3(O)C(=O)Nc4c(Cl)ccc(Cl)c43)nsc2c1 (stereo not drawn) [TK Analog 18] | < 5 | > 5 | > 5 | – | – | – |
| O=C(CC1(O)C(=O)Nc2c(Cl)ccc(Cl)c21)c1ccc2ccccc2c1 (stereo not drawn) [TK Analog 19] | < 5 | < 5 | < 5 | – | – | – |
| O=C(CC1(O)C(=O)Nc2c(Cl)ccc(Cl)c21)c1ccc(C2CC2)nc1 (stereo not drawn) [TK Analog 20] | > 5 | > 5 | > 5 | – | – | – |
| O=C(CC1(O)C(=O)Nc2c(Cl)ccc(Cl)c21)c1ccc(C2CC2)cn1 (stereo not drawn) [TK Analog 21] | > 5 | > 5 | > 5 | – | – | – |
| O=C(CC1(O)C(=O)Nc2c(Cl)ccc(Cl)c21)c1ccc(C2CC2)s1 (stereo not drawn) [TK Analog 22] | < 5 | > 5 | > 5 | – | – | – |
| O=C(CC1(O)C(=O)Nc2c(Cl)ccc(Cl)c21)c1cc(C2CC2)cs1 (stereo not drawn) [TK Analog 23] | > 5 | > 5 | > 5 | – | – | – |
| O=C(CC1(O)C(=O)Nc2c(Cl)ccc(Cl)c21)c1csc(C2CC2)c1 (stereo not drawn) [TK Analog 24] | > 5 | > 5 | > 5 | – | – | – |
| O=C(CC1(O)C(=O)Nc2c(Cl)ccc(Cl)c21)c1ccc(C2CC2)cc1 (stereo not drawn) [TK-216-2, reference compound] | – | – | – | < 5 | < 5 | < 5 |
| COc1ccc(C(=O)CC2(O)C(=O)Nc3c(Cl)ccc(Cl)c32)cc1 (stereo not drawn) [YK-4-279, 4,7-dichloro-3-hydroxy-3-(2-(4-methoxyphenyl)-2-oxoethyl)indolin-2-one, reference compound] | < 5 | < 5 | < 5 | – | – | – |

The remaining lines, values ahead:

| IC50 ([1]; Homo sapiens, 72 h) [µM] | IC50 ([2]; Homo sapiens, 72 h) [µM] | IC50 ([3]; Homo sapiens, TC-71, 72 h) [µM] | IC50 [1] [µM] | IC50 [2] [µM] | IC50 [3] [µM] | Compound |
| --- | --- | --- | --- | --- | --- | --- |
| < 5 | < 5 | < 5 | – | – | – | O=C(CC1(O)C(=O)Nc2c(Cl)ccc(Cl)c21)c1ccc(C2(F)CC2)cc1 (stereo not drawn) [TK Analog 2] |
| < 5 | > 5 | > 5 | – | – | – | NC1(c2ccc(C(=O)CC3(O)C(=O)Nc4c(Cl)ccc(Cl)c43)cc2)CC1 (stereo not drawn) [TK Analog 3] |
| < 5 | < 5 | < 5 | – | – | – | COc1ccc(C(=O)CC2C(=O)Nc3c(Cl)ccc(Cl)c32)cc1 (stereo not drawn) [TK Analog 6] |
| < 5 | < 5 | < 5 | – | – | – | COc1ccc(C(=O)CC2(F)C(=O)Nc3c(Cl)ccc(Cl)c32)cc1 (stereo not drawn) [TK Analog 7] |
| < 5 | > 5 | > 5 | – | – | – | COc1ccc(C(=O)CC2(N)C(=O)Nc3c(Cl)ccc(Cl)c32)cc1 (stereo not drawn) [TK Analog 8] |
| < 5 | > 5 | > 5 | – | – | – | O=C(CC1(O)C(=O)Nc2c(Cl)ccc(Cl)c21)c1ccc2occc2c1 (stereo not drawn) [TK Analog 9] |
| < 5 | < 5 | < 5 | – | – | – | O=C(CC1(O)C(=O)Nc2c(Cl)ccc(Cl)c21)c1ccc2sccc2c1 (stereo not drawn) [TK Analog 10] |
| < 5 | < 5 | < 5 | – | – | – | O=C(CC1(O)C(=O)Nc2c(Cl)ccc(Cl)c21)c1ccc2[nH]ccc2c1 (stereo not drawn) [TK Analog 11] |
| < 5 | < 5 | < 5 | – | – | – | COc1ccc(C(=O)CC2(O)C(=O)Nc3c(Cl)ccc(Cl)c32)c(F)c1 (stereo not drawn) [TK Analog 15A] |
| < 5 | > 5 | > 5 | – | – | – | COc1ccc2c(cnn2CC2(O)C(=O)Nc3c(Cl)ccc(Cl)c32)c1 (stereo not drawn) [TK Analog 16] |
